# Experimental data from PMC5903829 (Experimental & Molecular Medicine, 2018).
# System: Caco-2 cells
# Assay: Trans-epithelial electrical resistance in Caco-2 monolayers
# Type: cell-based, human
# Settings: compound C 30 min pre-treatment, then LPS or LPS+AmEV
smiles,measurement,value
c1cc(-c2cnn3cc(-c4ccc(OCCN5CCCCC5)cc4)cnc23)ccn1 [compound C],AmEVs' ability to improve LPS-induced loss of barrier integrity (TEER) in the presence of AMPK inhibitor,abolished
